From patent EP4674425A1, “COMPOSITION FOR TREATING DIABETIC RETINOPATHY, COMPRISING PEPTIDE” (EyebioKorea, Inc., priority 2023, dated 2026)
Non-standard residues stand in square brackets, D forms with d. No end group written: not given here. Hyp = O=C(O)[C@@H]1C[C@@H](O)CN1; Aib = CC(C)(N)C(=O)O

Key:
JNK = assay: Western blot of retinal tissue, db/db mouse model; type: in vivo, db/db mice; conditions: eye drops BID or TID for about 12 weeks, versus db/db mouse group, Figure 11
Method: (§1) The drug was administered as eye drops (ED) to 12-week-old db/db mice twice a day (BID) or three times a day (TID) for about 12 weeks. In order to evaluate the expression level of proteins in the retina, retinal tissue was separated from the extracted mouse eyes and treated with RIPA solution to extract proteins in the retina. Western blot was performed to evaluate the expression level of factors related to neovascularization and vascular permeability in the retina.

COX-2 = assay: Western blot of retinal tissue, db/db mouse model; type: in vivo, db/db mice; conditions: eye drops three times a day (TID) for about 12 weeks, versus db/db mouse group, Figure 10
Method: as §1

[1] = system: vascular endothelial growth factor (VEGF); assay: Western blot of retinal tissue, db/db mouse model; type: in vivo, db/db mice; conditions: eye drops three times a day (TID) for about 12 weeks, versus db/db mouse group, Figure 8
Method: as §1

Akt [2] = assay: Western blot of retinal tissue, db/db mouse model; type: in vivo, db/db mice; conditions: eye drops three times a day (TID) for about 12 weeks, versus db/db mouse group, Figure 9
Method: as §1

pericytes = assay: Loss of pericytes in retinal blood vessels of db/db mice (elastase digest, PAS staining); type: in vivo; conditions: Figures 5 and 6
Text: In the early stage of nonproliferative diabetic retinopathy, blood flows into the tissue due to the loss of pericytes surrounding the capillaries, causing the macula to swell. Macular edema is a representative symptom of nonproliferative diabetic retinopathy in which the focus of objects becomes blurred, the field of vision darkens, and visual acuity temporarily decreases. Therefore, in order to evaluate the efficacy of the peptide of the present invention in inhibiting loss of pericytes, an experiment was performed as follows.
The drug was administered as eye drops (ED) to 12-week-old db/db mice twice a day (BID) or three times a day (TID) for about 12 weeks. In order to evaluate the state of blood vessels in the retina, the eyes of the extracted mice were fixed in 10% formalin for a week. Thereafter, the fixed eye tissue was treated with elastase to separate the retinal blood vessels and PAS staining was performed. The ratio of vascular endothelial cells and pericytes present in the blood vessel walls and the number of acellular blood vessels were quantified to evaluate the permeability of the blood vessels in the retina.

[3] = system: oxygen induced retinopathy (OIR) mouse model; assay: Inhibition of neovascularity in oxygen induced retinopathy mouse model (Isolectin B4 flat mount, fluorescence imaging); type: in vivo; conditions: eye drops (ED) for 5 days from day 12 to day 16 after birth; versus OIR model group; positive control aflibercept IVT once on day 12; Figures 1 and 2
Method: In order to evaluate the efficacy of the peptide of the present invention in inhibiting neovascularity in an oxygen induced retinopathy (OIR) mouse model, an experiment was performed as follows.
After stabilizing the mice born with the mother (new born mice) for about 3 to 4 days, they were raised under 75% hyperoxic conditions for 5 days from day 7 to day 11 after birth. Thereafter, they were raised under normoxic conditions until day 17 after birth. Drugs were administered while they were raised under normoxic conditions. The peptide of the present invention (002-175) was administered as eye drops (ED) for 5 days from day 12 to day 16 after birth, and as a positive control group, aflibercept was administered intraocularly (intravitreal injection, IVT) once on day 12 after birth. Thereafter, the mouse eyes were extracted, fixed in 10% formalin for 1 hour, and then flat mounted. The retina was divided into four equal parts centered on the optic nerve, and treated with Isolectin B4 (1 mM CaCl2, 1:200) overnight (O/N). Thereafter, they were spread on a slide glass, sprayed with mounting solution, covered with a cover glass, and photographed under a fluorescence microscope. The fluorescence images of blood vessels in the retina were obtained, and the number and area of new blood vessels and the area of blood vessels were calculated using the imageJ program.

[4] = system: Streptozotocin (STZ) induced diabetic retinopathy mouse model; assay: Electroretinography in streptozotocin induced diabetic retinopathy mouse model; type: in vivo, C57BL/6 mice; conditions: electroretinogram (ERG); eye drops (ED) twice a day for about 17 weeks; versus STZ model group; comparator aflibercept; Figure 3
Method: The streptozotocin induced mouse model is a type 1 diabetes mellitus model that induces diabetes mellitus by injecting the antibiotic streptozotocin (STZ) into the mouse's peritoneum to damage the beta cells that produce insulin in the pancreas. It is one of the models used in diabetic retinopathy research, and it is a model that can confirm the early stage of diabetic retinopathy from the time of onset of diabetes mellitus.
After fasting for 3-4 hours before administration, 8-week-old C57BL/6 mice were administered with streptozotocin (STZ) dissolved in Na-citrate buffer and buffer at a dose of 50 mg/kg intraperitoneally for 5 days. The drug used at this time was prepared immediately before administration and used quickly. One week after the last STZ intraperitoneal administration, blood glucose was measured, and only mice with blood glucose exceeding 250 mg/dL were determined to be diabetic mice and used in the experiment. The drug was administered as eye drops (ED) twice a day for about 17 weeks starting from the day after model production, and 10 µg was administered intraocularly (intravitreal injection, IVT) once a month. […] The retina was stimulated with a single white light to obtain a response value, and the amplitude from the trough of the a wave to the peak of the b wave was measured, which was evaluated as an index of retinal function.

db/db mouse model = assay: Electroretinography in db/db mouse model; type: in vivo, db/db mice; conditions: electroretinogram (ERG), Figure 4
Method: The drug was administered as eye drops (ED) to 12-week-old db/db mice twice a day (BID) or three times a day (TID) for about 12 weeks. In order to evaluate retinal function, the mice were dark-adapted for more than 12 hours before measuring electroretinogram (ERG), and then the mice were subjected to pupillary dilation and anesthetized, and electrodes were placed on the skin, tail, and cornea to measure ERG. The retina was stimulated with a single white light to obtain a response value, and the amplitude from the trough of the a wave to the peak of the b wave was measured, which was evaluated as an index of retinal function.

MMP9 [5] = assay: Gene expression by microarray in zebrafish diabetic retinopathy model; type: in vivo, zebrafish Tg[flk:EGFP]; conditions: eyeball RNA, 4 days treatment with glucose and peptide, Figure 14
Method: (§2) Among the embryos obtained by mating adult zebrafish Tg[flk:EGFP], embryos expressing a fluorescent protein were selected and used. On the 6th day after fertilization, the embryos were treated with glucose and the peptide of the present invention (002-175) for 4 days, and then euthanized by adding 4 mg/ml of Tricane. The eyeballs were extracted, and RNA was extracted and analyzed using microarray. In addition, Trizol was added to the extracted eyeballs, and the tissue was homogenized to extract mRNA. The extracted mRNA was quantified using a NanoDrop spectrophotometer, and cDNA was synthesized using RNA with a purity of 1.8 or higher. The synthesized cDNA was subjected to polymerization reaction of SYBR Green Master Mix, primers, and genes, and the concentration of each gene was divided by GAPDH to obtain the corrected concentration of the gene.

NF-kB [6] = assay: as above; type: in vivo, zebrafish Tg[flk:EGFP]; conditions: eyeball RNA, 4 days treatment with glucose and peptide, Figure 14
Method: as §2

IL-1β [7] = assay: as above; type: in vivo, zebrafish Tg[flk:EGFP]; conditions: eyeball RNA, 4 days treatment with glucose and peptide, Figure 14
Method: as §2

ZO-1 = assay: Immunofluorescence (IF) staining of zebrafish eye, diabetic retinopathy model; type: in vivo; conditions: tight junction protein; versus high glucose group; Figures 16 and 17
Method: (§3) On the 6th day after fertilization (6dpf, 6 days post-fertilization), zebrafish fry were fixed with 4% paraformaldehyde for 3-4 hours, and then treated with 30% sucrose, and treated overnight at 4°C. O.C.T blocks were made, and sections were performed, and then TUNEL staining and immunofluorescence (IF) staining were performed.

GFAP = assay: as above; type: in vivo; conditions: outer nuclear layer (ONL) of the retina; versus high glucose group; Figures 16 and 17
Method: as §3

VEGF = assay: as above; type: in vivo; conditions: outer nuclear layer (ONL) of the retina; versus high glucose group; Figures 16 and 17
Method: as §3

MMP9 [8] = assay: Gene expression by real-time PCR in zebrafish diabetic retinopathy model; type: in vivo, zebrafish Tg[flk:EGFP]; conditions: corrected by GAPDH, eyeball mRNA, Figure 15
Method: as §2

ikkγ = assay: as above; type: in vivo, zebrafish Tg[flk:EGFP]; conditions: corrected by GAPDH, eyeball mRNA, Figure 15
Method: as §2

NF-kB [9] = assay: as above; type: in vivo, zebrafish Tg[flk:EGFP]; conditions: corrected by GAPDH, eyeball mRNA, Figure 15
Method: as §2

ikkα = assay: as above; type: in vivo, zebrafish Tg[flk:EGFP]; conditions: corrected by GAPDH, eyeball mRNA, Figure 15
Method: as §2

ikkβ = assay: as above; type: in vivo, zebrafish Tg[flk:EGFP]; conditions: corrected by GAPDH, eyeball mRNA, Figure 15
Method: as §2

IL-1β [10] = assay: as above; type: in vivo, zebrafish Tg[flk:EGFP]; conditions: corrected by GAPDH, eyeball mRNA, Figure 15
Method: as §2

[11] = system: vascular endothelial growth factor (VEGF); assay: Western blot of retinal tissue, STZ induced diabetic retinopathy mouse model; type: in vivo, C57BL/6 mice; conditions: about 17 weeks of administration, versus STZ model group, Figure 7
Method: (§4) After fasting for 3-4 hours before administration, 8-week-old C57BL/6 mice were administered with streptozotocin (STZ) dissolved in Na-citrate buffer and buffer at a dose of 50 mg/kg intraperitoneally for 5 days. The drug used at this time was prepared immediately before administration and used quickly. One week after the last STZ intraperitoneal administration, blood glucose was measured, and only mice with blood glucose exceeding 250 mg/dL were determined to be diabetic mice and used in the experiment. The drug was administered as eye drops (ED) twice a day for about 17 weeks starting from the day after model production, and 10 µg was administered intraocularly (intravitreal injection, IVT) once a month. In order to evaluate the expression level of proteins in the retina, retinal tissue was separated from the extracted mouse eyes and treated with RIPA solution to extract proteins in the retina. Western blot was performed to evaluate the expression level of factors related to neovascularization and vascular permeability in the retina.

Akt [12] = assay: as above; type: in vivo, C57BL/6 mice; conditions: about 17 weeks of administration, versus STZ model group, Figure 7
Method: as §4

[13] = system: zebrafish retinal blood vessels; assay: Inhibition of retinal vasodilation in zebrafish diabetic retinopathy model (fluorescence microscopy); type: in vivo, zebrafish Tg[flk:EGFP]; conditions: Figures 12 and 13
Method: Among the embryos obtained by mating adult zebrafish Tg[flk:EGFP], embryos expressing a fluorescent protein were selected and used. On the 6th day after fertilization, the embryos were treated with glucose and the peptide of the present invention (002-175) for 4 days, and then euthanized by adding 4 mg/ml of Tricane. After fixing with 4% paraformaldehyde for 3 days, the eyeballs were separated using 3% trypsin, and the changes in the blood vessels in the separated eyeballs were observed using a fluorescence microscope.

[14] = system: TUNEL positive cells in the inner nuclear layer (INL) of the retina; assay: TUNEL assay in retinal tissue, zebrafish diabetic retinopathy model; type: in vivo; conditions: versus high glucose group, Figures 16 and 17
Method: as §3

[15] = eye drops (ED) BID or TID for about 12 weeks, versus db/db mouse group
[16] = eye drops three times a day (TID) for about 12 weeks

[Hyp]GQE[Aib]LA [002-175]
phosphorylation level of JNK (JNK): decrease in the phosphorylation level of JNK
expression of COX-2 (COX-2): decrease in the expression of COX-2
expression of vascular endothelial growth factor (VEGF) [1]: decrease in the expression of vascular endothelial growth factor
phosphorylation level of Akt (Akt [2]): decrease in the phosphorylation level of Akt
pericytes (pericytes; [15]): inhibition of the decrease in pericytes
pericytes, effect of TID compared with BID (pericytes; [16]): more excellent effect compared to the group administered twice a day (BID)
area of new blood vessels [3]: decrease in the area of new blood vessels to a level similar to that of the group administered with aflibercept
amplitude of the a wave and the b wave [4]: increase in the amplitude of the a wave and the b wave to a level similar to that of the group administered with aflibercept
amplitude of the a wave and the b wave (db/db mouse model; [15]): increase in the amplitude of the a wave and the b wave
amplitude of the a wave and the b wave, effect of TID compared with BID (db/db mouse model; [16]): more excellent effect compared to the group administered twice a day (BID)
gene expression of MMP9 (MMP9 [5]): decrease in the gene expression
gene expression of NF-kB (NF-kB [6]): decrease in the gene expression
gene expression of IL-1β (IL-1β [7]): decrease in the gene expression
expression of ZO-1 (ZO-1): increase in expression and a recovery pattern
expression of GFAP (GFAP): decrease in the expression of VEGF and GFAP
expression of VEGF (VEGF): decrease in the expression of VEGF and GFAP
gene expression of MMP9 (MMP9 [8]): decrease in the gene expression
gene expression of ikkγ (ikkγ): decrease in the gene expression
gene expression of NF-kB (NF-kB [9]): decrease in the gene expression
gene expression of ikkα (ikkα): decrease in the gene expression
gene expression of ikkβ (ikkβ): decrease in the gene expression
gene expression of IL-1β (IL-1β [10]): decrease in the gene expression
expression of vascular endothelial growth factor (VEGF) [11]: decrease in the expression of vascular endothelial growth factor
phosphorylation level of Akt (Akt [12]): decrease in the phosphorylation level of Akt
diameter of retinal blood vessels ([13]; 100 µg/ml, 4 days, high glucose (130 mM glucose)): decrease in the diameter of retinal blood vessels to a level similar to that of the normal group
diameter of retinal blood vessels ([13]; 200 µg/ml, 4 days, high glucose (130 mM glucose)): decrease in the diameter of retinal blood vessels to a level similar to that of the normal group
diameter of retinal blood vessels ([13]; treated with glucose and peptide for 4 days from 6th day after fertilization, versus high glucose (130 mM glucose) group): decrease in the diameter of retinal blood vessels
TUNEL positive cells [14]: decrease in TUNEL positive cells
